The structures appear in SMILES notation.

The assay concerns the target T1, estrogen receptor alpha (ESR1) in MCF7 breast cancer cells (Homo sapiens, UniProt P03372).
T1 sequence (P03372 1-595): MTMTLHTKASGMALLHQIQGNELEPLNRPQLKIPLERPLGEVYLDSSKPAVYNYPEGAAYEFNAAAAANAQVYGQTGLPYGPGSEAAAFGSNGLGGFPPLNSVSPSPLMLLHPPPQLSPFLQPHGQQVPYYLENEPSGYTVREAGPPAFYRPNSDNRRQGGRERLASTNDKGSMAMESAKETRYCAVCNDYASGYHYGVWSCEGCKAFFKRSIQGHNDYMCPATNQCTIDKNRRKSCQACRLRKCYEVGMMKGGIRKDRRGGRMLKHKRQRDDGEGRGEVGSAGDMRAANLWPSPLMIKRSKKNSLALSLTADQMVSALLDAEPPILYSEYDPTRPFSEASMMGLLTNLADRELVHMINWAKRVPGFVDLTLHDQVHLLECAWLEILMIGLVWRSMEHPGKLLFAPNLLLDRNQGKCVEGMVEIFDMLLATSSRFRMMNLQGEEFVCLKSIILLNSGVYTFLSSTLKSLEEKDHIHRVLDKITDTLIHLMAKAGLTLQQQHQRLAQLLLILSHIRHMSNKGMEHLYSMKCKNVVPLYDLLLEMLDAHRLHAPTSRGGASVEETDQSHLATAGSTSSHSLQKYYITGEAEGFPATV
The experiment in a line: Breast Cancer Cell ERa High Content Fluorescence Imaging Degradation Assay (ER-alpha MCF7 HCS). The assay is classed as cell-based. The arrangement: endogenous in cells; host or cells: MCF7 breast cancer cells; key to ERalpha (WT) MCF7HCS (Sinf): % change in ERα level; DMSO = 0%, fulvestrant = 100% change. The settings on record: 4 hours, plateau of the maximal effect; for ER-alpha MCF7HCS Sinf: DMSO and fulvestrant define 0% and 100% change in ESR1, Table 1a. The method, then:
All of the exemplary Formula I, II, and III compounds in Tables 1a and 1b were made and characterized by LCMS [M+H]^+ (liquid chromatography mass spectroscopy) with detection of parent ion. All of the exemplary Formula I, II, and III compounds in Tables 1a and 1b were tested for binding to ERa (Estrogen Receptor alpha) and biological activity according to the assays, protocols, and procedures of Examples 901-907. ER-alpha MCF7 HCS Sinf (%) values in Tables 1a and 1b were measured by the Breast Cancer Cell ERa High Content Fluorescence Imaging Degradation Assay of Example 901. ER-alpha MCF7 HCS EC50 (μM) values in Tables 1a and 1b were measured by the in vitro cell proliferation assays described in Examples 902 and 903. The rat uterine wet weight assays of Examples 906 and 907 allow rapid determination of compound antagonist activity in an ER responsive tissue (immature rat uterus) while competing against the native ER ligand estradiol, i.e. antagonist mode (Ashby, J.; et al (1997) Regulatory toxicology and pharmacology: RTP, 25 (3):226-31). Exemplary Formula I, II, and III compounds in Tables 1a and 1b have the following structures, corresponding names (ChemBioDraw, Version 12.0.2, CambridgeSoft Corp., Cambridge Mass.), and biological activity. Where more than one name is associated with a Formula I, II, and III compound or intermediate, the chemical structure shall define the compound.
MCF7 breast cancer cells were seeded on day 1 at a density of 10,000 cells per well in 384 well poly-lysine coated tissue culture plate (Greiner # T-3101-4), in 50 μL/well RPMI (phenol red free), 10% FBS (Charcoal stripped), containing L-glutamine. On day 2, compounds were prepared at 2 compound source concentrations: 100 μM and 1 μM (ultimately to give 2 overlapping titration curves), in a Labcyte low dead volume plate, 10 μL/well, and 10 μL of DMSO in designated wells for backfill, and 5 μM Fulvestrant (control compound) in designated wells. Compounds and controls were dispensed using a Labcyte Echo acoustic dispenser to dispense compounds with a predefined serial dilution (1.8×, 10 point, in duplicate) and appropriate backfill and control compounds (final total volume transferred was 417.5 nL and compound dispense volume ranges from 2.5 nL to 417.5 nL; 0.84% DMSO (v/v) final), ultimately producing a concentration range from 0.05 nM to 835 nM. Cell plates were incubated at 37° C., for 4 hours. Fixation and permeabilization were carried out using a Biotek EL406 plate washer and dispenser as follows. Cells were fixed by addition of 15 μL of 16% paraformaldehyde (Electron Microscopy Sciences #15710-S) directly to the 50 μL cell culture medium in each well using the peristaltic pump 5 μL cassette on a Biotek EL406 (final concentration of formaldehyde was 3.7% w/v). Samples were incubated 30 minutes. Well contents was aspirated and 50 μL/well of Phosphate Buffered Saline (PBS) containing 0.5% w/v bovine serum albumen, 0.5% v/v Triton X-100 (Antibody Dilution Buffer) was added to each well. Samples were incubated for 30 minutes. Well contents were aspirated and washed 3 times with 100 μL/well of PBS. Immunofluorescence staining of estrogen receptor alpha (ESR1) was carried out using a Biotek EL406 plate washer and dispenser as follows. The well supernatant was aspirated from the wells and 25 μL/well of anti-ESR1 mAb (F10) (Santa Cruz sc-8002) diluted 1:1000 in Antibody Dilution Buffer was dispensed. Samples were incubated for 2 hours at room temperature. Samples were washed 4 times with 100 μL/well of PBS. 25 uL (microliters)/well of secondary antibody solution (Alexafluor 488 conjugate anti-mouse IgG (LifeTechnologies # A21202) diluted 1:1000 and Hoechst 33342 1 μg/ml diluted in Antibody Dilution Buffer) were dispensed into each well. Samples were incubated for 2 hours at room temperature. Samples were washed 3 times with 100 μL/well of PBS using a Biotek EL406. Quantitative fluorescence imaging of ESR1 was carried out using a Cellomics Arrayscan V (Thermo). […]

In the case of `C[C@@H]1Cc2c([nH]c3ccccc23)[C@H]2c3c(F)cc(OCCN4CC(CF)C4)cc3OCC(F)(F)CN21` [Example 112, (10R,16bR)-1,7,7-Trifluoro-3-(2-(3-(fluoromethyl)azetidin-1-yl)ethoxy)-10-methyl-7,8,10,11,16,16b-hexahydro-6H-benzo[2′,3′][1,5]oxazocino[5′,4′:1,2]pyrido[3,4-b]indole], the “ER-alpha MCF7HCS Sinf” value was −50%.

Regarding `C[C@H]1Cc2sc3ccccc3c2[C@@H](c2ccc(OCCN3CC(CF)C3)cc2)N1CC(C)(C)F` [Example 131, (1R,3S)-2-(2-fluoro-2-methylpropyl)-1-(4-(2-(3-(fluoromethyl)azetidin-1-yl)ethoxy)phenyl)-3-methyl-1,2,3,4-tetrahydrobenzo[4,5]thieno[3,2-c]pyridine], the “ER-alpha MCF7HCS Sinf” value is reported as −99%.

Consider `C[C@@H]1Cc2c([nH]c3ccccc23)[C@]2(CCc3cc(OCCN4CC(CF)C4)ccc32)N1CC(C)(C)F` [Example 113, (1R,3′R)-2′-(2-fluoro-2-methylpropyl)-5-(2-(3-(fluoromethyl)azetidin-1-yl)ethoxy)-3′-methyl-2,2′,3,3′,4′,9′-hexahydrospiro[indene-1,1′-pyrido[3,4-b]indole]], for which the “ER-alpha MCF7HCS Sinf” value is −94.7%.

Turning to `CC(F)(CO)CN1CCCc2c([nH]c3ccccc23)[C@@H]1c1c(F)cc(OCCN2CC(CF)C2)cc1F` (stereo partly drawn) [Example 119, 3-((S)-1-(2,6-difluoro-4-(2-(3-(fluoromethyl)azetidin-1-yl)ethoxy)phenyl)-3,4,5,10-tetrahydroazepino[3,4-b]indol-2(1H)-yl)-2-fluoro-2-methylpropan-1-ol], the “ER-alpha MCF7HCS Sinf” value is on record as −95.6%.

Regarding `C[C@@H]1Cc2c([nH]c3ccccc23)[C@]2(CCc3cc(OCCN4CC(CF)C4)ccc32)N1CC(F)(F)F` [Example 114, (1R,3′R)-5-(2-(3-(fluoromethyl)azetidin-1-yl)ethoxy)-3′-methyl-2′-(2,2,2-trifluoroethyl)-2,2′,3,3′,4′,9′-hexahydrospiro [indene-1,1′-pyrido [3,4-b]indole]], the “ER-alpha MCF7HCS Sinf” value is recorded as −96.6%.

`C[C@H]1Cc2c(sc3ccccc23)[C@H](c2c(F)cc(NC3CN(CCCF)C3)cc2F)N1CC(F)(F)CO` (single isomer, unassigned) [Example 160]: the “ER-alpha MCF7HCS Sinf” value was −96.9%.

With `CC1Cc2[nH]c3ccccc3c2C(c2c(F)cc(NC3CN(CCCF)C3)cc2F)N1CCF` (stereo not shown) [Example 149, (□)-N-(3,5-difluoro-4-(2-(2-fluoroethyl)-3-methyl-2,3,4,5-tetrahydro-1H-pyrido[4,3-b]indol-1-yl)phenyl)-1-(3-fluoropropyl) azetidin-3-amine], the “ER-alpha MCF7HCS Sinf” value was −75%.

With `C[C@@H]1Cc2c([nH]c3ccccc23)[C@]2(CCc3nc(OCCN4CC(CF)C4)ccc32)N1CC(F)(F)F` [Example 134, (3′R,5R)-2-(2-(3-(fluoromethyl)azetidin-1-yl)ethoxy)-3′-methyl-2′-(2,2,2-trifluoroethyl)-2′,3′,4′,6,7,9′-hexahydrospiro [cyclopenta[b]pyridine-5,1′-pyrido [3,4-b]indole]], the “ER-alpha MCF7HCS Sinf” value was −96.5%.

`C[C@@](F)(CO)CN1CCCc2c([nH]c3ccccc23)[C@H]1c1c(F)cc(OCCN2CC(CF)C2)cc1F` [Example 117, (S)-3-((R)-1-(2,6-difluoro-4-(2-(3-(fluoromethyl)azetidin-1-yl)ethoxy)phenyl)-3,4,5,10-tetrahydroazepino[3,4-b]indol-2(1H)-yl)-2-fluoro-2-methylpropan-1-ol]: the “ER-alpha MCF7HCS Sinf” value is given as −93.8%.

For the molecule `C[C@H]1CN(CC(C)(C)F)[C@H](c2c(F)cc(OCCN3CC(CF)C3)cc2F)c2[nH]c3ccccc3c21` (single isomer, unassigned) [Example 107], the “ER-alpha MCF7HCS Sinf” value is reported as −97.8%.

For the molecule `C[C@@H]1Cn2c(cc3ccccc32)[C@@H](c2c(F)cc(NC3CN(CCCF)C3)cc2F)N1CC(C)(C)F` [Example 127, N-(3,5-Difluoro-4-((1R,3R)-2-(2-fluoro-2-methylpropyl)-3-methyl-1,2,3,4-tetrahydropyrazino[1,2-a]indol-1-yl)phenyl)-1-(3-fluoropropyl)azetidin-3-amine], the “ER-alpha MCF7HCS Sinf” value is listed as −100%.

On to `C[C@@H]1Cc2c([nH]c3ccccc23)[C@@](C)(c2ccc(OCCN3CC(CF)C3)cc2)N1CC(C)(C)F` [Example 135, (1R,3R)-2-(2-Fluoro-2-methylpropyl)-1-(4-(2-(3-(fluoromethyl)azetidin-1-yl)ethoxy)phenyl)-1,3-dimethyl-2,3,4,9-tetrahydro-1H-pyrido[3,4-b]indole], for which the “ER-alpha MCF7HCS Sinf” value was −95%.

With `C[C@@H]1Cc2c(oc3ccccc23)[C@@H](c2c(F)cc(NC3CN(CCCF)C3)cc2F)N1CC(F)(F)CO` (single isomer, unassigned) [Example 157], the “ER-alpha MCF7HCS Sinf” value is recorded as −102%.

On to `C[C@H]1Cc2[nH]c3ccccc3c2[C@H](c2c(F)cc(NC3CN(CCCF)C3)cc2F)N1CC(F)(F)F` [Example 153, N-(3,5-difluoro-4-((1R,3S)-3-methyl-2-(2,2,2-trifluoroethyl)-2,3,4,5-tetrahydro-1H-pyrido[4,3-b]indol-1-yl)-phenyl)-1-(3-fluoropropyl) azetidin-3-amine], for which the “ER-alpha MCF7HCS Sinf” value is −30%.

In the case of `C[C@@H]1Cc2c([nH]c3ncccc23)[C@@H](c2c(F)cc(OC3CN(CCCF)C3)cc2F)N1CC(C)(C)F` (single isomer, unassigned) [Example 120], the “ER-alpha MCF7HCS Sinf” value is −88.0%.

With `C[C@H]1Cc2sc3ccccc3c2[C@H](c2ccc(OCCN3CC(CF)C3)cc2)N1CC(C)(C)F` [Example 129, (1S,3S)-2-(2-Fluoro-2-methylpropyl)-1-(4-(2-(3-(fluoromethyl)azetidin-1-yl)ethoxy)phenyl)-3-methyl-1,2,3,4-tetrahydrobenzo[4,5]thieno[3,2-c]pyridine], the “ER-alpha MCF7HCS Sinf” value is recorded as −43.8%.

As to `C[C@@H]1Cc2sc3ccccc3c2[C@H](c2ccc(OCCN3CC(CF)C3)cc2)N1CC(C)(C)F` (single isomer, unassigned) [Example 130], the “ER-alpha MCF7HCS Sinf” value is −76.8%.

With `CC(C)C(=O)N1[C@H](c2c(F)cc(OCCN3CC(CF)C3)cc2F)c2oc3ccccc3c2C[C@H]1C` (single isomer, unassigned) [Example 101], the “ER-alpha MCF7HCS Sinf” value was −94.5%.

For `C[C@@H]1Cn2c(cc3ccccc32)[C@@H](c2c(F)cc([C@@H](O)C3CN(CCCF)C3)cc2F)N1CC(F)(F)CO` (single isomer, unassigned) [Example 163], the “ERalpha (WT) MCF7HCS (Sinf)” value (DMSO and fulvestrant define 0% and 100% change in ESR1, Table 1b) is reported as −100.

(Values after US10654867B2 (Genentech, Inc., priority 2016, dated 2020).)
